One assay concerns the target T1, Dopamine receptor D4 (Homo sapiens, UniProt P21917).
T1 construct: expressed in transfected cells
T1 sequence (P21917 1-419): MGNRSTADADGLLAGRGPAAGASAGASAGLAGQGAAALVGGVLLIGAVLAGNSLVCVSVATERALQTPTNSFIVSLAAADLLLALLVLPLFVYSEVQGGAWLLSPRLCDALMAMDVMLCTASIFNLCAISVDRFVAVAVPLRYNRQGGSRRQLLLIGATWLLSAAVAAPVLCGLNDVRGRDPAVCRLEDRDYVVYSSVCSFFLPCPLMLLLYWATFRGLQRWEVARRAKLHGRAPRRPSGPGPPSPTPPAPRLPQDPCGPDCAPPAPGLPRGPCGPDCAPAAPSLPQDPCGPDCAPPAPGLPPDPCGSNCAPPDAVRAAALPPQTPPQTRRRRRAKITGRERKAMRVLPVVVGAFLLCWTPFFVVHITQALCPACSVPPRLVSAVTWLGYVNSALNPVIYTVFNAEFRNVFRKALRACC
Briefly: PDSP secondary radioligand binding assay. As for the experimental part: (§1) Primary and secondary radioligand binding assays are performed. In general, the primary assay is run at very high ligand (compound) concentration as a broad screen to determine whether a compound binds to a particular receptor. If greater than 50% inhibition at 10 μM (high concentration of compound) at a particular receptor is determined, a secondary assay is performed on that receptor. Data from the secondary assay is the binding affinity (Ki value).
This assay is used to test binding to receptors such as the serotonin receptors: 5-HT1A, 5-HT1B, 5-HT1D, 5-HT1E, 5-HT2A, 5-HT2B, 5-HT2C, 5-HT3, 5-HT5A, 5-HT6 and 5-HT7. The protocol is adapted from Roth et al. J. Pharmacol. Exp. Ther. 1986, 238, 480-485 and Roth et al. J. Pharmacol. Exp. Ther. 1994, 268, 1403-1410. The assay buffer is Standard Binding Buffer (50 mM Tris-HCl, 10 mM MgCl2, 0.1 mM EDTA, pH 7.4). The membrane fraction source is transiently or stably transfected cell lines (e.g., HEK293, COS, CHO, NIH3T3).
A solution of the compound to be tested is prepared as a 1 mg/mL stock in Standard Binding Buffer or DMSO according to its solubility. A similar stock of a reference compound (positive control) is also prepared.
Radioligand (see Table 41) is diluted to five times the assay concentration (see Table 21) in Standard Binding Buffer. […]
The 250 μL reactions are incubated at room temperature and shielded from light (to prevent photolysis of light-sensitive ligands) for 1.5 hours, then harvested by rapid filtration onto Whatman GF/B glass fiber filters pre-soaked with 0.3% polyethyleneimine using a 96-well Brandel harvester. […] The tubes are capped, labeled, and counted by liquid scintillation counting. For higher throughput assays, bound radioactivity is harvested onto 0.3% polyethyleneimine-treated, 96-well filter mats using a 96-well Filtermate harvester. The filter mats are dried, then scintillant is melted onto the filters, and the radioactivity retained on the filters is counted in a Microbeta scintillation counter. […]

The target in a further assay is T2, SERT transporter (Homo sapiens, UniProt P31645).
T2 construct: expressed in transfected cells
T2 sequence (P31645 whole entry): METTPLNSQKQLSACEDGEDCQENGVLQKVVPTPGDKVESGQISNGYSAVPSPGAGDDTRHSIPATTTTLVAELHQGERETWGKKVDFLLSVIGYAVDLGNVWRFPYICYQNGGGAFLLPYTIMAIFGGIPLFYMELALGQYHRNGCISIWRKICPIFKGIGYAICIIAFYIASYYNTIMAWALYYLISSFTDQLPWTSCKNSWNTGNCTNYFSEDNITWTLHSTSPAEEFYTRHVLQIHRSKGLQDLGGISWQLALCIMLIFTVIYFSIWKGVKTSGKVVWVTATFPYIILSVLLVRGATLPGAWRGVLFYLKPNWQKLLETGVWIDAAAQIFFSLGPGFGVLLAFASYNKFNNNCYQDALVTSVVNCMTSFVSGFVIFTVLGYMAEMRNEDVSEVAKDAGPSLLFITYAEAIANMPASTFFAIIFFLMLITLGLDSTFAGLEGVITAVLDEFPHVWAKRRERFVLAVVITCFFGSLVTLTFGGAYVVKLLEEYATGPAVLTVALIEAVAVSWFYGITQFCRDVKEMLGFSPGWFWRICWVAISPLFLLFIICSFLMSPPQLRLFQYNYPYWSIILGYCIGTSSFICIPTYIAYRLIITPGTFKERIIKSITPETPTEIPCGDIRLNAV
Nature of the assay: PDSP primary radioligand binding assay. As to conditions: compound 10 μM, n=4, read-out: mean percentage inhibition, SERT transporter. The procedure: as §1
(§2) A solution of the compound to be tested is prepared as a 1 mg/ml stock in Standard Binding Buffer or dimethyl sulfoxide (DMSO) according to its solubility. A similar stock of a reference compound (positive control) is also prepared.
(§3) Radioligand (radioligands are presented in Table 39) is diluted to five times the assay concentration (assay concentrations are presented in Table 39) in Standard Binding Buffer. Typically, the assay concentration of radioligand is a value between one half the KD and the KD of a particular radioligand at its target. Aliquots (50 μL) of radioligand are dispensed into the wells of a 96-well plate (see FIG. 11) containing 100 μL of Standard Binding Buffer (Table 40). Then, duplicate 50 μL aliquots of the test and reference compound dilutions are added (see FIG. 11). According to FIG. 11, increasing concentrations (from left to right) of reference or test compound (diluted in buffer) are added (50 μL aliquots, in duplicate) from 5× stock solutions to wells containing 50 μL of 5× radioligand (fixed concentration, prepared in buffer) and 100 μL of buffer. Finally, 50 μL of receptor-containing membrane homogenate (5× suspension in buffer) are added to achieve a final assay volume of 250 μL. Final concentrations of reference or test compound are listed above the columns in FIG. 11.
(§4) Finally, crude membrane fractions of cells expressing recombinant target (prepared from 10 cm plates by harvesting phosphate buffered saline (PBS)-rinsed monolayers, resuspending and lysing in chilled, hypotonic 50 mM Tris-HCl, pH 7.4, centrifuging at 20,000×g, decanting the supernatant and storing at −80° C.; typically, one 10 cm plate provides sufficient material for 24 wells) are resuspended in 3 mL of chilled Standard Binding Buffer and homogenized by several passages through a 26 gauge needle, and then 50 μL are dispensed into each well.
(§5) The 250 μL reactions are incubated at room temperature and shielded from light (to prevent photolysis of light-sensitive ligands) for 1.5 hours, then harvested by rapid filtration onto Whatman GF/B glass fiber filters pre-soaked with 0.3% polyethyleneimine using a 96-well Brandel harvester. Four rapid 500 μL washes are performed with chilled Standard Binding Buffer to reduce non-specific binding. Filters are placed in 6 mL scintillation tubes and allowed to dry overnight. The next day, 4 mL of EcoScint scintillation cocktail (National Diagnostics) are added to each tube. The tubes are capped, labeled, and counted by liquid scintillation counting. For higher throughput assays, bound radioactivity is harvested onto 0.3% polyethyleneimine-treated, 96-well filter mats using a 96-well Filtermate harvester. The filter mats are dried, then scintillant is melted onto the filters, and the radioactivity retained on the filters is counted in a Microbeta scintillation counter.
(§6) Raw data (dpm) representing total radioligand binding (i.e., specific+non-specific binding) are plotted as a function of the logarithm of the molar concentration of the competitor (i.e., test or reference compound). […]

Another assay has as its target T3, NET transporter (Homo sapiens, UniProt P23975).
T3 construct: expressed in transfected cells
Nature of the assay: PDSP primary radioligand binding assay. The following applies: compound 10 μM. As for the experimental part:
as §1, §2, §3, §4, §5, §6

Molecules are shown by their SMILES. Counter-ions that a name gives are not always drawn.

T3 sequence (P23975 whole entry): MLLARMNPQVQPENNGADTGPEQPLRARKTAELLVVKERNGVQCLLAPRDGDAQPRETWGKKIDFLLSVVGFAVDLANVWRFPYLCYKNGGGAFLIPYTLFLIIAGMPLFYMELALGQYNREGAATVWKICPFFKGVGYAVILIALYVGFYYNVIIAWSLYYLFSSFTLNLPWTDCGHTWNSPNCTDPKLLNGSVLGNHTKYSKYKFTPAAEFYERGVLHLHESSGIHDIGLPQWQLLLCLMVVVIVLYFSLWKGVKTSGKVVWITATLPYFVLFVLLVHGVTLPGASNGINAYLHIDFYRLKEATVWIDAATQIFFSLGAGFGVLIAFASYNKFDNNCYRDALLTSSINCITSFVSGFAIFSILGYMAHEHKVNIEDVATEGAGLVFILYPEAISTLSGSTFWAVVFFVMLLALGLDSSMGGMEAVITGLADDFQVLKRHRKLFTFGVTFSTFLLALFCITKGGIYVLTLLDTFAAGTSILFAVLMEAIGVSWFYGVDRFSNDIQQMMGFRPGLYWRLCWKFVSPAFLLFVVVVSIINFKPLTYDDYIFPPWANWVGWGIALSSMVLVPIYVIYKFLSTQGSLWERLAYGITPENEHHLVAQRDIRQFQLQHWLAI

At Dopamine receptor D4, `CCCOc1cc2c(cn1)[nH]c1ccncc12` [Compound 2, 8-Propoxypyridino[4′,3′-5,4]pyrrolo[3,2-c]pyridine hydrochloride] yielded a Ki of 7.5 µM. In addition, the inhibition at 10 µM on SERT transporter turned out to be 22.1%.

With `CCCOc1cc2c(cn1)[nH]c1cnccc12` [Compound 4, 3-Propoxy pyridino[4′,3′-4,5]pyrrolo[2,3-c]pyridine hydrochloride], at NET transporter (n=4, hydrochloride, 10 µM), the “mean percentage inhibition, NET transporter” value is 36.8%. In addition, the inhibition at 10 µM at NET transporter (n=4, read-out: mean percentage inhibition, NET transporter) is under 50%.
